Source: US12258327B2, “5-membered heteroaryl-containing aminopyridine compounds as EGFR inhibitors” (YUHAN CORPORATION, priority 2021, dated 2025)
Like-named read-outs stand apart in the source and are kept apart here.

How the values were obtained:
EGFR del19/T790M/C797S = EGFR del19/T790M/C797S (Homo sapiens, UniProt P00533, C797S/DEL746-750/T790M); test: Biochemical EGFR kinase assay (Lance Ultra TR-FRET), triple mutant del19/T790M/C797S
Procedure, shortened: (§1)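 Kinase activity is measured by TR-FRET phosphopeptide detection. Compounds span 0.003 μM to 10 μM; the 1 h reaction at room temperature is quenched with EDTA, then labelled antibody (2 nM) is incubated 60 min before reading.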

EGFR L858R/T790M/C797S = EGFR L858R/T790M/C797S (Homo sapiens, UniProt P00533, C797S/L858R/T790M); test: Biochemical EGFR kinase assay (Lance Ultra TR-FRET), triple mutant L858R/T790M/C797S
Procedure, shortened: as §1

EGFR del19/C797S = EGFR del19/C797S (Homo sapiens, UniProt P00533, C797S/DEL746-750); test: Biochemical EGFR kinase assay (Lance Ultra TR-FRET), double mutant del19/C797S
Procedure, shortened: as §1

EGFR L858R/C797S = EGFR L858R/C797S (Homo sapiens, UniProt P00533, C797S/L858R); test: Biochemical EGFR kinase assay (Lance Ultra TR-FRET), double mutant L858R/C797S
Procedure, shortened: as §1

EGFR wildtype (WT) = EGFR wildtype (WT) (Homo sapiens, UniProt P00533); test: Biochemical EGFR kinase assay (Lance Ultra TR-FRET), wildtype
Procedure, shortened: as §1

[1] = IC50 del19/T790M/C797S (nM) 100 μM ATP, 100 μM ATP
[2] = Km ATP, read-out: IC50 del19/T790M/C797S (nM) Km ATP
[3] = IC50 L858R/T790M/C797S (nM) 100 μM ATP, 100 μM ATP
[4] = Km ATP, read-out: IC50 L858R/T790M/C797S (nM) Km ATP
[5] = IC50 del19/C797S (nM) 100 μM ATP, 100 μM ATP
[6] = Km ATP, read-out: IC50 del19/C797S (nM) Km ATP
[7] = IC50 L858R/C797S (nM) 100 μM ATP, 100 μM ATP
[8] = Km ATP, read-out: IC50 L858R/C797S (nM) Km ATP
[9] = IC50 WT (nM) 100 μM ATP, 100 μM ATP
[10] = Km ATP, read-out: IC50 WT (nM) Km ATP
[11] = Km ATP, read-out: IC50 del19/T790M/C797S, Km ATP
[12] = Km ATP, read-out: IC50 L858R/T790M/C797S, Km ATP
[13] = Km ATP, read-out: IC50 del19/C797S, Km ATP
[14] = Km ATP, read-out: IC50 L858R/C797S, Km ATP
[15] = Km ATP, read-out: IC50 WT, Km ATP

Chain of EGFR del19/C797S (P00533 with tags, fused parts or gaps DEL746-750/C797S): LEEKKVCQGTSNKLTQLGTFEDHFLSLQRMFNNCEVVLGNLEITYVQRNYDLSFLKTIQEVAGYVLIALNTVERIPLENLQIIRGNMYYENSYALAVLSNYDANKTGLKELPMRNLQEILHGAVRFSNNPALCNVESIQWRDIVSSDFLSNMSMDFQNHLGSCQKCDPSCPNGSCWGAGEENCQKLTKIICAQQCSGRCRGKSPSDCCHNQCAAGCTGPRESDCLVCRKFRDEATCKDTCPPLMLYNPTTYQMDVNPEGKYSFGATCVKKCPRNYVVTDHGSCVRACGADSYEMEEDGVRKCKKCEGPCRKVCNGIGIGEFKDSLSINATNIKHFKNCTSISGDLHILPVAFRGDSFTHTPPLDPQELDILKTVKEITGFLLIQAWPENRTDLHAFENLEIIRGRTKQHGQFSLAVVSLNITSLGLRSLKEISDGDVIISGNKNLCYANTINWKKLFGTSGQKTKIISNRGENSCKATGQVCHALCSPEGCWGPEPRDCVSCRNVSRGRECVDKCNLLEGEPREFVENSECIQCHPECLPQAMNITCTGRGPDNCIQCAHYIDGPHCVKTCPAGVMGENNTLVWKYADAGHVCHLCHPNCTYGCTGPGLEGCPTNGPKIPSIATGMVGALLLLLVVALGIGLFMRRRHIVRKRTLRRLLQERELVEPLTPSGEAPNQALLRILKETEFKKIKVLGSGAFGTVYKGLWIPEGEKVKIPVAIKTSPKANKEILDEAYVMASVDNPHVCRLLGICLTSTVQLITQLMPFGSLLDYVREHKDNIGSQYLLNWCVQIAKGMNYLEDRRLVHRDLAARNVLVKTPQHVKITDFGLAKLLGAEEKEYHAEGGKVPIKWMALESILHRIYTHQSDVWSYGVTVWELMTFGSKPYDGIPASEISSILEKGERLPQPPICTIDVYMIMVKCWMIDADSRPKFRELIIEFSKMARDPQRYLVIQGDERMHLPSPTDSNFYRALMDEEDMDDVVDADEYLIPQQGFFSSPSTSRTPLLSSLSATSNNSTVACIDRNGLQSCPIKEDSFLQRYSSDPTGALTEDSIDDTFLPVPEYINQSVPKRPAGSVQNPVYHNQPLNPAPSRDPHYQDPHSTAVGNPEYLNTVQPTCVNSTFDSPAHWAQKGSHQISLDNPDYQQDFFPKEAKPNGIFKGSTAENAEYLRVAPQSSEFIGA
Chain of EGFR L858R/T790M/C797S (P00533 25-1210 T790M/C797S/L858R): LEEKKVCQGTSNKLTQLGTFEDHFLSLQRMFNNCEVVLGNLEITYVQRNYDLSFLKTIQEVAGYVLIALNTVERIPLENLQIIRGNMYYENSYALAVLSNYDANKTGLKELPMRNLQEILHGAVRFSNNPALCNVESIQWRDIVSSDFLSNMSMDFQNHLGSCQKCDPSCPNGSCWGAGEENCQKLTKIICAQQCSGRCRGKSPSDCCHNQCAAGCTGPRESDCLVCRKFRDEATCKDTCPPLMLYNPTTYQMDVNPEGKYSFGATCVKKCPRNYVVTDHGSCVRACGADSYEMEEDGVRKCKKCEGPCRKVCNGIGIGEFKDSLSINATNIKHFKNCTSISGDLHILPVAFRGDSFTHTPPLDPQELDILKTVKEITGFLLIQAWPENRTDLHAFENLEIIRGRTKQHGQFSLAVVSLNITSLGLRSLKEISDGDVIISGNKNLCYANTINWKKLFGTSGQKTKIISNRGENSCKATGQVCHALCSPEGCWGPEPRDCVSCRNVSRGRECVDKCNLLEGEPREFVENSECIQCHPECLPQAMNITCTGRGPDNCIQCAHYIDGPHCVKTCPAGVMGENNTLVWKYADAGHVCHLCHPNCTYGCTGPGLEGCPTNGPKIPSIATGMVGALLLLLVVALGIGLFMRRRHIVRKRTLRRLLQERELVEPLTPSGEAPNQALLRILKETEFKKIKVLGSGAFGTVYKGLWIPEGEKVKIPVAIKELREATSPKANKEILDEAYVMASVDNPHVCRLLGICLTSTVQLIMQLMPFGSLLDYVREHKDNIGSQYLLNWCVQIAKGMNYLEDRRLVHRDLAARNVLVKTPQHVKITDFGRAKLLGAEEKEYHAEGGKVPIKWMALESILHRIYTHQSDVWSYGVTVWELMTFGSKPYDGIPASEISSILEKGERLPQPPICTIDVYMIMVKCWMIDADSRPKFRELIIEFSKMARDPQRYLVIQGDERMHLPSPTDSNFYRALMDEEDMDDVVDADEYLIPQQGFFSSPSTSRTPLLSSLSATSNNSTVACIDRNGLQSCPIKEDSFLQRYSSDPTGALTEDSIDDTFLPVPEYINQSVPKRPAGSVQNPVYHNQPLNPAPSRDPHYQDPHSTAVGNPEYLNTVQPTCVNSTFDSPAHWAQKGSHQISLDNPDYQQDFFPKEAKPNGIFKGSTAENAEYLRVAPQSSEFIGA
Chain of EGFR wildtype (WT) (P00533 25-1210): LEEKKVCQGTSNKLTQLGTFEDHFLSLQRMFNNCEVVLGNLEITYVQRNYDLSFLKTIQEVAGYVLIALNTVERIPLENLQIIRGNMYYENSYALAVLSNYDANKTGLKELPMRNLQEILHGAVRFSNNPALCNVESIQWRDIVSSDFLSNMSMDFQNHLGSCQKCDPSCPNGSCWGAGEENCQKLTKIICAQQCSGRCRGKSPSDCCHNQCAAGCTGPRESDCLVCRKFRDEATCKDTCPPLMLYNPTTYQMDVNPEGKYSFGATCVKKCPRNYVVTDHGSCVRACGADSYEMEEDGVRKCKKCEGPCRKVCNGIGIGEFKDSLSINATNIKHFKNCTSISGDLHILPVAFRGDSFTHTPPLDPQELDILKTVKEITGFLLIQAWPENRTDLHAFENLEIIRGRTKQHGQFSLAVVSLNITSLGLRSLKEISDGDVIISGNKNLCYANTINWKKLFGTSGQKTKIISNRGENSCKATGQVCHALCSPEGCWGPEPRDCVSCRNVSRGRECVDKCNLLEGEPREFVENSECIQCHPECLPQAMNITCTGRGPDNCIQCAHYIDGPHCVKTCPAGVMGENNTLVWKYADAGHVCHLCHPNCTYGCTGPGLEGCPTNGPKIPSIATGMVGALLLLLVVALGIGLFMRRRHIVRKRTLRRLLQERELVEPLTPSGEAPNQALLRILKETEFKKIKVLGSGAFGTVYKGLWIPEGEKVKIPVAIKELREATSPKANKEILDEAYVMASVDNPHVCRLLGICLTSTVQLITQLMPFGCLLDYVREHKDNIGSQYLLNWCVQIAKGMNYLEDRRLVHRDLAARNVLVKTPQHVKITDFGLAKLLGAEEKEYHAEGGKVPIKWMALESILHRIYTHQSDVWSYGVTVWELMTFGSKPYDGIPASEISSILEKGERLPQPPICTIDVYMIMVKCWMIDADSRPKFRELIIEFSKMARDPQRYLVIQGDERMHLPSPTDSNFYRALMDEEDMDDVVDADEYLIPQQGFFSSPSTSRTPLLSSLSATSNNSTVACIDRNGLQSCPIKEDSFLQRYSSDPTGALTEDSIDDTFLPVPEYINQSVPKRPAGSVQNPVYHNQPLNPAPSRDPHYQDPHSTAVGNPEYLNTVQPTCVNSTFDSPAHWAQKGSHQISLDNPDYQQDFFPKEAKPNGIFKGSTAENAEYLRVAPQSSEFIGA
Chain of EGFR L858R/C797S (P00533 25-1210 C797S/L858R): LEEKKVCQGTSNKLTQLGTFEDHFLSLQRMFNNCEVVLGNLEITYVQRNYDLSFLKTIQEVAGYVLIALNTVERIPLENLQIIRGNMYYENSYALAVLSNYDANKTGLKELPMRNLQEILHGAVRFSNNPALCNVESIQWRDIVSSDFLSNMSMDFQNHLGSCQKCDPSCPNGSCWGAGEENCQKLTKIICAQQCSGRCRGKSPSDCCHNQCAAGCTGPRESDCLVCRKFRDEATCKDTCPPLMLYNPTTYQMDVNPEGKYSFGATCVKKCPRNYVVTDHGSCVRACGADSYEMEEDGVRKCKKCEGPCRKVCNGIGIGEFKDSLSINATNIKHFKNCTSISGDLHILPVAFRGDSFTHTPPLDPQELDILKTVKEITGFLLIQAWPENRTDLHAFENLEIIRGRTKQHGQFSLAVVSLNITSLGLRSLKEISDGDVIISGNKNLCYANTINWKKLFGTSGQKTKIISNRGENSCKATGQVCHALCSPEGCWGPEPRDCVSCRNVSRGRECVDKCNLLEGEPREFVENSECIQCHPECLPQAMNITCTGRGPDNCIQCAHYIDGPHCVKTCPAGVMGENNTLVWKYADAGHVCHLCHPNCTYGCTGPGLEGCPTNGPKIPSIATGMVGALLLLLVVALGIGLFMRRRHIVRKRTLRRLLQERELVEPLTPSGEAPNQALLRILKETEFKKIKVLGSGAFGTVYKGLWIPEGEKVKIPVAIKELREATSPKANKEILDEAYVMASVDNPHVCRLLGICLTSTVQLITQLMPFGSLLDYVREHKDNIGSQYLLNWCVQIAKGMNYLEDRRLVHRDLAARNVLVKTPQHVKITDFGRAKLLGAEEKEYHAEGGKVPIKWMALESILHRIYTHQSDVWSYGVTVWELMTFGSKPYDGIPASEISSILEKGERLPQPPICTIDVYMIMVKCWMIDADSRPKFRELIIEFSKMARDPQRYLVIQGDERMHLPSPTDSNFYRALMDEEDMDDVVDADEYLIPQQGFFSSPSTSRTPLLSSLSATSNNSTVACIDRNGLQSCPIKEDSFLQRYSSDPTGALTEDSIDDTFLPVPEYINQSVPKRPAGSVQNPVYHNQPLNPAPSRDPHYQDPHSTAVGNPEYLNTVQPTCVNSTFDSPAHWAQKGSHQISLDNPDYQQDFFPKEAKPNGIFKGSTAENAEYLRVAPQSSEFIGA

Cn1ccc(-c2cnc(Nc3ccnc(-c4cnn(S(=O)(=O)C5CC5)c4)n3)cc2N[C@H]2CC[C@]3(CCC(=O)N3)CC2)n1 [Example 44, (5s,8s)-8-((2-((2-(1-(Cyclopropylsulfonyl)-1H-pyrazol-4-yl)pyrimidin-4-yl)amino)-5-(1-methyl-1H-pyrazol-3-yl)pyridin-4-yl)amino)-1-azaspiro[4.5]decan-2-one]
IC50 (EGFR del19/T790M/C797S; [1]): 0.2 nM
IC50 (EGFR del19/T790M/C797S; [2]): 0.2 nM
IC50 (EGFR L858R/T790M/C797S; [3]): 0.2 nM
IC50 (EGFR L858R/T790M/C797S; [4]): 0.1 nM
IC50 (EGFR del19/C797S; [5]): 0.2 nM
IC50 (EGFR del19/C797S; [6]): 0.2 nM
IC50 (EGFR L858R/C797S; [7]): 0.8 nM
IC50 (EGFR L858R/C797S; [8]): 0.2 nM
IC50 (EGFR wildtype (WT); [9]): > 10000 nM
IC50 (EGFR wildtype (WT); [10]): 1 nM

Cc1nn(CC(F)(F)F)cc1-c1nccc(Nc2cc(N[C@H]3CC[C@@](C)(O)CC3)c(-c3ccn(CC(F)F)n3)cn2)n1 [Example 335, (1s,4s)-4-((5-(1-(2,2-Difluoroethyl)-1H-pyrazol-3-yl)-2-((2-(3-methyl-1-(2,2,2-trifluoroethyl)-1H-pyrazol-4-yl)pyrimidin-4-yl)amino)pyridin-4-yl)amino)-1-methylcyclohexan-1-ol]
IC50 (EGFR del19/T790M/C797S; [11]): 1.6 nM
IC50 (EGFR L858R/T790M/C797S; [12]): 0.7 nM
IC50 (EGFR del19/C797S; [13]): 7.9 nM
IC50 (EGFR L858R/C797S; [14]): 4.6 nM
IC50 (EGFR wildtype (WT); [15]): 98.8 nM

C[C@]1(O)CC[C@@H](Nc2nc(Nc3ccnc(-c4cnn(S(=O)(=O)C5CC5)c4)c3)ncc2-c2ccn(CC(F)F)n2)CC1 [Example 357, (1s,4s)-4-((2-((2-(1-(Cyclopropylsulfonyl)-1H-pyrazol-4-yl)pyridin-4-yl)amino)-5-(1-(2,2-difluoroethyl)-1H-pyrazol-3-yl)pyrimidin-4-yl)amino)-1-methylcyclohexan-1-ol]
IC50 (EGFR del19/T790M/C797S; [11]): 0.2 nM
IC50 (EGFR L858R/T790M/C797S; [12]): 0.4 nM
IC50 (EGFR del19/C797S; [13]): 5.2 nM
IC50 (EGFR L858R/C797S; [14]): 8.4 nM
IC50 (EGFR wildtype (WT); [15]): 46.2 nM

CN[C@H]1CC[C@@H](Oc2cc(Nc3ccnc(-c4cnn(S(=O)(=O)C5CC5)c4)n3)ncc2-c2ccn(C(F)F)n2)CC1 [Example 65, 2-(1-(Cyclopropylsulfonyl)-1H-pyrazol-4-yl)-N-(5-(1-(difluoromethyl)-1H-pyrazol-3-yl)-4-(((1s,4s)-4-(methylamino)cyclohexyl)oxy)pyridin-2-yl)pyrimidin-4-amine]
IC50 (EGFR del19/T790M/C797S; [1]): 1.2 nM
IC50 (EGFR del19/T790M/C797S; [2]): 0.8 nM
IC50 (EGFR L858R/T790M/C797S; [3]): 4.2 nM
IC50 (EGFR L858R/T790M/C797S; [4]): 0.6 nM
IC50 (EGFR del19/C797S; [5]): 54.5 nM
IC50 (EGFR del19/C797S; [6]): 33.5 nM
IC50 (EGFR L858R/C797S; [7]): 622 nM
IC50 (EGFR L858R/C797S; [8]): 33.5 nM
IC50 (EGFR wildtype (WT); [9]): > 10000 nM
IC50 (EGFR wildtype (WT); [10]): 149 nM

CC1(N)CCC(Oc2cc(Nc3ccnc(-c4cnn(S(=O)(=O)C5CC5)c4)n3)ncc2-c2cnn(C(F)F)c2)CC1 (stereo not drawn) [Example 74, N-(4-((4-Amino-4-methylcyclohexyl)oxy)-5-(1-(difluoromethyl)-1H-pyrazol-4-yl)pyridin-2-yl)-2-(1-(cyclopropylsulfonyl)-1H-pyrazol-4-yl)pyrimidin-4-amine]
IC50 (EGFR del19/T790M/C797S; [1]): 8.3 nM
IC50 (EGFR L858R/T790M/C797S; [3]): 25.2 nM
IC50 (EGFR del19/C797S; [5]): 103 nM
IC50 (EGFR L858R/C797S; [7]): 1380 nM
IC50 (EGFR wildtype (WT); [9]): > 10000 nM

CC(C)(O)[C@H]1CC[C@@H](Nc2cc(Nc3ccnc(-c4cnn(CC(F)F)c4)n3)ncc2-c2ccn(C(F)F)n2)CC1 [Example 148, 2-((1s,4s)-4-((2-((2-(1-(2,2-Difluoroethyl)-1H-pyrazol-4-yl)pyrimidin-4-yl)amino)-5-(1-(difluoromethyl)-1H-pyrazol-3-yl)pyridin-4-yl)amino)cyclohexyl)propan-2-ol]
IC50 (EGFR del19/T790M/C797S; [2]): 1.4 nM
IC50 (EGFR L858R/T790M/C797S; [4]): 1.7 nM
IC50 (EGFR del19/C797S; [6]): 75.5 nM
IC50 (EGFR L858R/C797S; [8]): 27 nM
IC50 (EGFR wildtype (WT); [10]): 128 nM

CN(C)CCCn1ccc(-c2cnc(Nc3ccnc(-c4cnn(S(=O)(=O)C5CC5)c4)n3)cc2N[C@H]2CC[C@@H](NCCF)CC2)n1 [Example 301, N^2-(2-(1-(Cyclopropylsulfonyl)-1H-pyrazol-4-yl)pyrimidin-4-yl)-5-(1-(3-(dimethylamino)propyl)-1H-pyrazol-3-yl)-N^4-((1s,4s)-4-((2-fluoroethyl)amino)cyclohexyl)pyridine-2,4-diamine]
IC50 (EGFR del19/T790M/C797S; [1]): 0.1 nM
IC50 (EGFR L858R/T790M/C797S; [3]): 0.1 nM
IC50 (EGFR del19/C797S; [5]): 0.4 nM
IC50 (EGFR L858R/C797S; [7]): 3.5 nM
IC50 (EGFR wildtype (WT); [9]): 1370 nM

O=S(=O)(C1CC1)n1cc(-c2nccc(Nc3cc(N[C@H]4CCC[C@H](CO)C4)c(-c4ccn(C(F)F)n4)cn3)n2)cn1 [Example 202, ((1S,3S)-3-((2-((2-(1-(Cyclopropylsulfonyl)-1H-pyrazol-4-yl)pyrimidin-4-yl)amino)-5-(1-(difluoromethyl)-1H-pyrazol-3-yl)pyridin-4-yl)amino)cyclohexyl)methanol]
IC50 (EGFR del19/T790M/C797S; [1]): 1.3 nM
IC50 (EGFR del19/T790M/C797S; [2]): 1.1 nM
IC50 (EGFR L858R/T790M/C797S; [3]): 1.4 nM
IC50 (EGFR L858R/T790M/C797S; [4]): 0.5 nM
IC50 (EGFR del19/C797S; [5]): 6.6 nM
IC50 (EGFR del19/C797S; [6]): 1.4 nM
IC50 (EGFR L858R/C797S; [7]): 17.8 nM
IC50 (EGFR L858R/C797S; [8]): 2.7 nM
IC50 (EGFR wildtype (WT); [9]): > 10000 nM
IC50 (EGFR wildtype (WT); [10]): 10.6 nM

Cn1ccc(-c2cnc(Nc3ccnc(-c4cnn(S(=O)(=O)C5CC5)c4)n3)cc2NC[C@H]2CC[C@](C)(O)CC2)n1 [Example 48, (1r,4r)-4-(((2-((2-(1-(Cyclopropylsulfonyl)-1H-pyrazol-4-yl)pyrimidin-4-yl)amino)-5-(1-methyl-1H-pyrazol-3-yl)pyridin-4-yl)amino)methyl)-1-methylcyclohexan-1-ol]
IC50 (EGFR del19/T790M/C797S; [1]): 0.4 nM
IC50 (EGFR del19/T790M/C797S; [2]): 0.4 nM
IC50 (EGFR L858R/T790M/C797S; [3]): 0.5 nM
IC50 (EGFR L858R/T790M/C797S; [4]): 0.2 nM
IC50 (EGFR del19/C797S; [5]): 0.9 nM
IC50 (EGFR del19/C797S; [6]): 0.9 nM
IC50 (EGFR L858R/C797S; [7]): 6.1 nM
IC50 (EGFR L858R/C797S; [8]): 1.9 nM
IC50 (EGFR wildtype (WT); [9]): 9600 nM
IC50 (EGFR wildtype (WT); [10]): 5.8 nM

CS(=O)(=O)Cn1cc(-c2nccc(Nc3cc(N[C@H]4CC[C@@](C)(O)CC4)c(-c4ccn(C(F)F)n4)cn3)n2)cn1 [Example 150, (1s,4s)-4-((5-(1-(Difluoromethyl)-1H-pyrazol-3-yl)-2-((2-(1-((methylsulfonyl)methyl)-1H-pyrazol-4-yl)pyrimidin-4-yl)amino)pyridin-4-yl)amino)-1-methylcyclohexan-1-ol]
IC50 (EGFR del19/T790M/C797S; [2]): 1.6 nM
IC50 (EGFR L858R/T790M/C797S; [4]): 1.2 nM
IC50 (EGFR del19/C797S; [6]): 21.2 nM
IC50 (EGFR L858R/C797S; [8]): 14.7 nM
IC50 (EGFR wildtype (WT); [10]): 104 nM

CN1CCC(n2ccc(-c3cnc(Nc4ccnc(-c5cnn(S(=O)(=O)C6CC6)c5)n4)cc3N[C@H]3CC[C@@](C)(O)CC3)n2)CC1 [Example 287, (1s,4s)-4-((2-((2-(1-(Cyclopropylsulfonyl)-1H-pyrazol-4-yl)pyrimidin-4-yl)amino)-5-(1-(1-methylpiperidin-4-yl)-1H-pyrazol-3-yl)pyridin-4-yl)amino)-1-methylcyclohexan-1-ol]
IC50 (EGFR del19/T790M/C797S; [2]): 0.2 nM
IC50 (EGFR L858R/T790M/C797S; [4]): 0.1 nM
IC50 (EGFR del19/C797S; [6]): 0.3 nM
IC50 (EGFR L858R/C797S; [8]): 0.1 nM
IC50 (EGFR wildtype (WT); [10]): 0.3 nM

O=S(=O)(C1CC1)n1cc(-c2cc(Nc3ncc(-c4ccn(CC(F)(F)F)n4)c(N[C@H]4CC[C@@H](F)CC4)n3)ccn2)cn1 [Example 366, N^2-(2-(1-(Cyclopropylsulfonyl)-1H-pyrazol-4-yl)pyridin-4-yl)-N^4-((1s,4s)-4-fluorocyclohexyl)-5-(1-(2,2,2-trifluoroethyl)-1H-pyrazol-3-yl)pyrimidine-2,4-diamine]
IC50 (EGFR del19/T790M/C797S; [11]): 8.5 nM
IC50 (EGFR L858R/T790M/C797S; [12]): 3.1 nM
IC50 (EGFR del19/C797S; [13]): 249 nM
IC50 (EGFR L858R/C797S; [14]): 127 nM
IC50 (EGFR wildtype (WT); [15]): 3320 nM

CN(C)CC1(C)CCC(Nc2cc(Nc3ccnc(-c4cnn(S(=O)(=O)C5CC5)c4)n3)ncc2-c2ccn(C)n2)CC1 (stereo not drawn) [Example 238, N^2-(2-(1-(Cyclopropylsulfonyl)-1H-pyrazol-4-yl)pyrimidin-4-yl)-N^4-(4-((dimethylamino)methyl)-4-methylcyclohexyl)-5-(1-methyl-1H-pyrazol-3-yl)pyridine-2,4-diamine]
IC50 (EGFR del19/T790M/C797S; [1]): 0.6 nM
IC50 (EGFR del19/T790M/C797S; [2]): 0.8 nM
IC50 (EGFR L858R/T790M/C797S; [3]): 0.6 nM
IC50 (EGFR L858R/T790M/C797S; [4]): 0.4 nM
IC50 (EGFR del19/C797S; [5]): 4.9 nM
IC50 (EGFR del19/C797S; [6]): 2 nM
IC50 (EGFR L858R/C797S; [7]): 178 nM
IC50 (EGFR L858R/C797S; [8]): 7.1 nM
IC50 (EGFR wildtype (WT); [9]): 3600 nM
IC50 (EGFR wildtype (WT); [10]): 7.5 nM
